Entries after “also recorded” stand apart in the source; their conditions may differ. Structures can show the parent of a compound that is named as a salt.
Assays:
[1] = test system: Interleukin-1; experiment: Porcine SMA+FC model: Interleukin-1 concentration in BALF; assay type: in vivo, pigs; conditions: between groups
Excerpt: (§4) In addition, the protocol included a 3-day termination period, due to the severity of the ARDS associated with this model and the desire to obtain clinically relevant end-point data on all animals.

[2] = Porcine SMA+FC model: blood COL-3 concentration
[3] = test system: MMP-2; experiment: Rat CLP model: lung tissue MMP-2 level by immunohistochemistry; assay type: in vivo, Sprague-Dawley rats
Experimental: (§1) Experimental Protocol: Rats were randomly divided into 5 groups: GROUP 1) Sham CLP+2% solution of carboxymethylcellulose (CMC; vehicle for COL-3) in saline-midline laparotomy with cecum exposed and mesentery sharply incised plus oral gavage at the time of surgery with CMC (n=6); GROUP 2) Sham CLP+COL-3 (Collagenex Pharmaceutical, Newtown, Pa.)-midline laparotomy with cecum exposed and mesentery sharply incised plus oral gavage at the time of surgery with COL-3 (30 mg/kg, n=6); GROUP 3) CLP+CMC-midline laparotomy with CLP plus oral gavage at time of surgery with CMC (n=10); GROUP 4) CLP+COL-3 single dose [SD]-midline laparotomy with CLP plus oral gavage at the time of surgery with COL-3 (30 mg/kg, n=9); GROUP 5) CLP+COL-3 multiple dose [MD]-midline laparotomy with CLP plus oral gavage at the time of surgery and at 24 hours post CLP with COL-3 (30 mg/kg each administration for a total dose of 60 mg/kg, n=15). Rats were followed for 168 hours (7 days) with survival defined as hours post-CLP and survival time of each rat recorded. Rats were sacrificed at 168 hours or immediately following death. At necropsy, the left lung was excised and its bronchus cannulated. The lung was inflated to a pressure of 4 cmH2O with 10% formalin. The cannula was clamped and the lung stored in formalin at room temperature for 24 hours. The tissue was blocked in paraffin and serial sections made for staining with hematoxylin and eosin. Additionally, the remaining paraffin section of fixed lung was used for immunohistochemical determination of MMP-2 and MMP-9.
(§2) Lung tissue MMP-2 and MMP-9 levels: The levels of alveolar tissue MMP-2 and MMP-9 was assessed by immunohistochemical analysis as described elsewhere. Briefly, four micrometer formalin fixed paraffin sections were treated with xylene to remove paraffin and hydrated. The paraffin sections were treated with 0.4% pepsin for 45 minutes at +37° C. For immunostaining VECTASTAIN™ Rabbit ABC Elite Kit (Vector Laboratories, Burlingame, Calif.) was used according to manufactures instructions. […]

[4] = test system: pulmonary edema; experiment: Rat CLP model: lung water (W/D weight ratio); assay type: in vivo, Sprague-Dawley rats
Experimental: as §1
Lung Water: Representative tissue samples from the right lung were sharply dissected free of nonparenchymal tissue. Samples were placed in a dish and weighed, dried in an oven at 65° C. for 24 h and weighed again. This was repeated until there was no weight change over a 24-h period at which time the samples were determined to be dry. Lung water was expressed as a wet to dry weight ratio (W/D).

[5] = target: T1, MMP-9 (Sus scrofa, UniProt A0A287AZD5); experiment: Porcine SMA+FC model: MMP-9 in BALF; set-up: species or system pigs; conditions: pig, in vivo
T1 construct: from tissue; host or cells: pig bronchoalveolar lavage fluid (BALF)
Excerpt: (§5) A sepsis-induced ARDS porcine model was developed. […] In addition, the protocol included a 3-day termination period, due to the severity of the ARDS associated with this model and the desire to obtain clinically relevant end-point data on all animals.

[6] = test system: MMP-9; experiment: Rat CLP model: lung tissue MMP-9 level by immunohistochemistry; assay type: in vivo, Sprague-Dawley rats
Experimental: as §1, §2

[7] = Porcine SMA+FC model: BALF protein concentration; set-up: species or system pigs; conditions: pig, in vivo
Excerpt: as §4

[8] = test system: IL-8; experiment: Porcine SMA+FC model: IL-8 concentration in BALF; set-up: species or system pigs; conditions: pig, in vivo
Excerpt: as §5

[9] = test system: lung tissue; experiment: Porcine SMA+FC model: morphometric analysis of lung tissue and lung water; assay type: in vivo, pigs
Excerpt: as §5

[10] = test system: IL-10; experiment: Porcine SMA+FC model: IL-10 concentration in BALF; set-up: species or system pigs; conditions: pig, in vivo
Excerpt: as §4

[11] = test system: interleukin-6; experiment: Porcine SMA+FC model: interleukin-6 concentration in BALF; set-up: species or system pigs; conditions: pig, in vivo
Excerpt: as §5

[12] = test system: neutrophil elastase; experiment: Porcine SMA+FC model: BALF elastase activity; set-up: species or system pigs; conditions: pig, in vivo
Excerpt: as §5

[13] = test system: sepsis-induced ARDS (cecal ligation and puncture); experiment: Rat cecal ligation and puncture (CLP) model of sepsis-induced ARDS: survival; assay type: in vivo, Sprague-Dawley rats; conditions: for Mortality at 168 hours (7 days): CLP+CMC 70%
Experimental: (§3) Surgical Procedure: Male Sprague-Dawley rats weighing between 250-300 g were acclimatized to the laboratory environment for one week prior to surgery. Free access to food and water was available for this time period. Rats were anesthetized with intraperitoneal (IP) Ketamine (90 mg/kg)/Xylazine (10 mg/kg ). Sepsis was produced using a modification of the cecal ligation and puncture (CLP) technique described by Chaudry et al. After the abdominal fur was shaved, a 2 cm midline incision was made through the skin and peritoneum. The cecum was identified and withdrawn through the incision. The avascular portion of the mesentery was sharply incised and the cecum was ligated just below the ileocecal valve with a 3-0 silk suture, so that intestinal continuity was maintained. Using an 18 gauge needle, the cecum was perforated in two locations on the antimesenteric surface and was gently compressed until feces were extruded to ensure patency of the holes. The bowel was then returned to the abdomen and the incision was closed in 2 layers using 3-0 Prolene™ for the muscle and 2-0 silk for the skin. Each rat received 10 cc physiological saline subcutaneously immediately after the procedure and at 12 and 24 hours post-surgery. The rats were allowed to recover with water and food provided ad libitum throughout the remainder of the study.
as §1
Statistical analysis: Survival rates were evaluated using the Kaplan and Meier method and the significance was determined by the generalized Wilcoxon method. Differences between groups were analyzed by one-way analysis of variance. When the F ratio indicated significance, a Newman-Keul test was used to identify individual differences. A p value less than 0.05 was considered significant. Correlations between COL-3 concentration and survival, COL-3 concentration and MMP-2 and MMP-9 levels and levels of MMP-2 and MMP-9 and survival were determined by simple linear regression analysis.

[14] = test system: lung tissue; experiment: Rat CLP model: lung histology; assay type: in vivo, Sprague-Dawley rats
Experimental: as §3, §1
Histology: The lung tissue in each slide preparation was evaluated without knowledge of the treatment group from which it came. The slides were reviewed at low magnification for an overview to exclude sections containing bronchi, connective tissue, large blood vessels, and areas of confluent atelectasis, so that only regions reflecting the degree and stage of parenchymal injury would be evaluated. The areas of the slides which were not excluded were assessed at high magnification (400×) in the following manner. Five high power fields (HPF) were randomly sampled. […] Specifically, alveolar wall thickening, defined as greater than two cell layers thick, was graded as “0” (absent) or “1” (present) in each field. Intra-alveolar edema fluid, defined as homogenous or fibrillar proteinaceous staining within the alveoli, was graded as “0” (absent) or “1” (present) in each field. A total score/5HPF for alveolar wall thickening and intra-alveolar edema fluid was recorded for each animal. […]

[15] = test system: sepsis-induced ARDS (SMA+FC); experiment: Porcine fecal clot + SMA clamping sepsis-induced ARDS model: pulmonary function
[16] = test system: neutrophil elastase; conditions: LPS-induced acute lung injury, guinea pig; cited from earlier work
[17] = single dose of two 100 mg minocycline HCl tablets, adult humans; cited from earlier work
[18] = 250 mg every six hours over a twenty-four hour period; cited from earlier work
[19] = test system: microbes; conditions: based on steady-state pharmacokinetics; cited from earlier work
[20] = CLP+COL-3 (MD) vs CLP+CMC and CLP+COL-3 (SD)
[21] = COL-3 administration, dose dependent fashion, vs CLP+CMC
[22] = morphometric analysis of lung tissue

T1 sequence (A0A287AZD5 19-708): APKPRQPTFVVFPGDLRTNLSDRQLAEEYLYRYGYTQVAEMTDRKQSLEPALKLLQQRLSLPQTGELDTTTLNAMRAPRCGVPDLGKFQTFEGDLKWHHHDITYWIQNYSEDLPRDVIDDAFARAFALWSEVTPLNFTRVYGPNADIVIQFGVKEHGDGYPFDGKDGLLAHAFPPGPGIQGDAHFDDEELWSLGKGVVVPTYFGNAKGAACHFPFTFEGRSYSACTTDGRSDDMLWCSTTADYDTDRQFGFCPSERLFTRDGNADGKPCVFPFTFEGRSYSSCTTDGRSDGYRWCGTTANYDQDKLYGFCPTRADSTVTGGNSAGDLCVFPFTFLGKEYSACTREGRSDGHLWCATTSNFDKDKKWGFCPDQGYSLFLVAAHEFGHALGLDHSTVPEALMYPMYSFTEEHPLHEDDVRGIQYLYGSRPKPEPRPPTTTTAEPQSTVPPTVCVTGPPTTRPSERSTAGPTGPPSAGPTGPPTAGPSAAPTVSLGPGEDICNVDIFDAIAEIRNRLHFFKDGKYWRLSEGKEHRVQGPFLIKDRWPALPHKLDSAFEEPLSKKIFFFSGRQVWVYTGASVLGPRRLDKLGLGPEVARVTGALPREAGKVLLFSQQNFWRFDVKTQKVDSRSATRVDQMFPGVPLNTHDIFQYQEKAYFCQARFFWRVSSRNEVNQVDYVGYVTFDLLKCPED

## NC(=O)C1=C(O)C[C@@H]2C[C@@H]3Cc4cccc(O)c4C(=O)C3=C(O)[C@]2(O)C1=O [COL-3, 6-demethyl-6-deoxy-4-de(dimethylamino)tetracycline]
[1]
  Interleukin-1 concentration: not significantly different
[2]; Day 1
  Blood COL-3 concentration: 3.1 ± 0.3 µg/mL
[2]; Day 2
  Blood COL-3 concentration: 4.9 ± 1.0 µg/mL
[2]; Day 3
  Blood COL-3 concentration: 3.1 ± 1.0 µg/mL
[3]; [20]
  Lung tissue level of MMP-2: further reduction
[3]; CLP+COL-3 (SD) vs CLP+CMC
  Lung tissue level of MMP-2: significantly reduced
[3]; [21]
  Alveolar tissue level of MMP-2: significantly reduced
[4]; CLP+COL-3 (MD), second dose at 24 hours post CLP
  Lung water (W/D weight ratio): reduced edema to Sham CLP levels; also recorded: further reduced
[4]; CLP+COL-3 (SD) vs CLP+CMC
  Lung water (W/D weight ratio): significantly reduced
[4]; COL-3 administration, dose dependent manner, vs CLP+CMC
  Lung water or edema: significantly reduced
[5]
  MMP-9 in BALF: inhibited
[6]; [20]
  Lung tissue level of MMP-9: further reduced the level of MMP-9 to Sham CLP levels; also recorded: significantly reduced
[6]; CLP+COL-3 (SD) vs CLP+CMC
  Lung tissue level of MMP-9: reduced MMP-9 levels compared to the CLP+CMC group, but was not statistically significant
[6]; [21]
  Alveolar tissue level of MMP-9: significantly reduced
[7]
  Decrease in bronchoalveolarlavage fluid (BALF) protein concentration: 51%
[8]
  Increase in IL-8 concentration in BALF: blocked the increase
[9]; SMA+FC and SMA+FC+COL-3 groups vs Control Group, morphometric assessment
  Number of neutrophils sequestered in the lung: increased equally
[9]; [22]
  Decrease in hyline membranes: 94%
  Reduction in alveolar edema: 62%
[9]; pig, in vivo
  Decrease in lung water: 41%
[10]
  Increase in IL-10 concentration in BALF: blocked the increase
[11]
  Increase in interleukin-6 concentration in BALF: blocked the increase
[12]
  Neutrophil elastase in BALF: inhibited
  Reduction in BALF elastase activity: 87%
[13]; CLP+COL-3 (MD), repeat dose at 24 hours post CLP, p<0.05 vs CLP+CMC and CLP+COL-3 (SD)
  Seven day survival rate: enhanced survival benefit
[13]; CLP+COL-3 (MD): 30 mg/kg at surgery and at 24 hours post CLP
  Mortality at 168 hours (7 days): 33%
[13]; CLP+COL-3 (SD) vs CLP+CMC, p<0.05
  Seven day survival rate: significant improvement in survival
[13]; CLP+COL-3 (SD): single prophylactic dose 30 mg/kg oral gavage at surgery
  Mortality at 168 hours (7 days): 54%
[13]; COL-3 given as much as 12 hours following CLP
  Survival with delayed administration: significantly improve survival
[13]; Sham CLP+COL-3, 30 mg/kg oral gavage, 168 hours
  Survival of sham animals: all survived
[14]; CLP+COL-3 (MD) vs CLP+CMC
  Number of neutrophils sequestered in the lung: no significant differences
  Number of thickened alveolar walls: significantly reduced
[14]; CLP+COL-3 (MD), second dose, vs CLP+CMC
  Intra-alveolar edema fluid: significant reduction
[14]; CLP+COL-3 (SD) vs CLP+CMC
  Intra-alveolar edema fluid: reduced in the CLP+COL-3 (SD) group as compared to the CLP+CMC group, but was not statistically significant
  Number of neutrophils sequestered in the lung: no significant differences
  Number of thickened alveolar walls: significantly reduced
[15]; SMA+FC+COL-3 vs SMA+FC group
  Improvement in A-a gradient: 64%
  Improvement in lung plateau pressure: 52%
  Improvement in pulmonary compliance: 344%
  Increase in PaO2/FiO2 ratio: 204%
  Reduction in pulmonary shunt fraction: 80%
[15]; lung compliance, PaO2/FiO2 ratio, shunt fraction, lung water, histology not significantly different from Control Group
  Development of ARDS: completely prevented

## CC(C)(C)C(=O)Oc1ccc(S(=O)(=O)Nc2ccccc2C(=O)NCC(=O)O)cc1 [ONO-5046, N-[2-[4-(2,2-dimethylpropionyloxy)-phenylsulfonylamino]benzoyl]aminoacetic acid]
[16]
  Neutrophil elastase activity: inhibits

## CN(C)c1ccc(O)c2c1C[C@H]1C[C@H]3[C@H](N(C)C)C(O)=C(C(N)=O)C(=O)[C@@]3(O)C(O)=C1C2=O [minocycline HCl]
[17]
  Average minocycline serum level: 2.24 µg/mL

## CN(C)[C@@H]1C(O)=C(C(N)=O)C(=O)[C@@]2(O)C(O)=C3C(=O)c4c(O)cccc4[C@@](C)(O)[C@H]3C[C@@H]12 [tetracycline HCl]
[18]
  Peak plasma concentration: approximately 3 μg/ml

## CN(C)[C@@H]1C(O)=C(C(N)=O)C(=O)[C@@]2(O)C(O)=C3C(=O)c4c(O)cccc4[C@@](C)(O)[C@H]3C[C@@H]12 [tetracycline, Tetracycline]
[19]
  Plasma antibiotic threshold level: 0.5 µg/mL

— patent US20040092491A1, “Method of treating sepsis-induced ARDS” (The Research Foundation of State University of New York, priority 2002, published 2004)
